Experiments:
[1] = system: monomeric human immunoglobulin IgG1; assay: BIAcore binding of PsFcγRIIa to immobilized monomeric human IgG1; details: 22° C., HBS pH 7.4
Experimental: (§1) Analysis of the interaction between PsFcγRIIa and monomeric immunoglobulin was performed using a BIAcorea 2000 biosensor (available from Pharmacia Biotech, Uppsala, Sweden) at about 22° C. in Hepes buffered saline (HBS; 10 mM Hepes [N-2-hydroxyethylpiperazine-N′-2-ethanesulfonic acid, available from Commonwealth Serum Laboratories, Parkville, Australia], pH 7.4, 150 mM NaCl, 3.4 mM EDTA and 0.005% Surfactant, available from Pharmacia). About 4000 to about 6000 response units (RU) of monomeric human immunoglobulin subclasses IgG1, IgG2, IgG3, and IgE (50 μg/ml of each) were covalently coupled to separate carboxymethylated dextran surface of each CM5 sensor-chips (available from BIAcore, Uppsala, Sweden) using a amine coupling kit (available from BIAcore), according to manufacturer's methods. A series of PsFcγRIIa concentrations (about 0.001 to about 1 mg/ml protein) was injected over each sensor-chip surface for about 1 minute at about 20 μl/min followed by about 3 minute dissociation phase. Following administration of the protein, the immunoglobulin surface was regenerated on each chip using a buffer containing 50 mM diethylamine pH 11.5, and 1 M NaCl. […]

[2] = system: monomeric human immunoglobulin IgG3; assay: BIAcore binding of PsFcγRIIa to immobilized monomeric human IgG3; details: two site binding fit, 22° C., HBS pH 7.4
Chain of monomeric human immunoglobulin IgG3 (P01860 99-377 isoform P01860-1 limits assumed): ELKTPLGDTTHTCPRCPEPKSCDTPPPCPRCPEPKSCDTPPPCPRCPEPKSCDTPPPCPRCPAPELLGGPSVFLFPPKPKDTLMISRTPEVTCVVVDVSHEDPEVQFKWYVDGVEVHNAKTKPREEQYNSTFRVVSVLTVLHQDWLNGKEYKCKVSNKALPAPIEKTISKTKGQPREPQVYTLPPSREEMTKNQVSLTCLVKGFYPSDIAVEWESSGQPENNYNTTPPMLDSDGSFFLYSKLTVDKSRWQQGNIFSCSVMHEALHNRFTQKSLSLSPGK
Experimental: as §1

Chain of monomeric human immunoglobulin IgG1 (P01857 99-223 limits assumed): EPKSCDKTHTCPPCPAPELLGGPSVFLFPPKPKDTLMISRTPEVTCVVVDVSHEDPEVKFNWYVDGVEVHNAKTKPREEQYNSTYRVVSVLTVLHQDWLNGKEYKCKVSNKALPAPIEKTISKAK

## PsFcγRIIa: recombinant soluble human FcγRIIa protein from baculovirus-infected Sf-21 cells; two species, SEQ ID NO:3 and SEQ ID NO:12
[1]; at about 90% of the ligand binding sites
  affinity of PsFcγRIIa for IgG1: about 2.1×10^6 M^−1
[1]; at the remaining 10% of sites
  affinity of PsFcγRIIa for IgG1: about 2.3×10^4 M^−1
[2]; at 50% of the sites
  affinity for IgG3: about 2.7×10^6 M^−1
[2]; at the remaining 50% of the sites
  affinity for IgG3: about 1.2×10^4 M^−1

Reference: patent US6675105B2, “Structure-based identification of candidate compounds using three dimensional structures and models of Fc receptors” (Ilexus Pty Limited, priority 1998, dated 2004)
